From patent US10239843B2 (CANCER RESEARCH TECHNOLOGY LIMITED, priority 2014, dated 2019)
Where two headings read alike, the source gives them in different places.

Biological target: Human Full Length PARG (Homo sapiens (Human), UniProt Q86W56)
Assay: PARG enzyme assay (TR-FRET)
Type: biochemical
[1] = read-out: PARG Biochem IC50 Geomean

Sequence of Human Full Length PARG (Q86W56 whole entry): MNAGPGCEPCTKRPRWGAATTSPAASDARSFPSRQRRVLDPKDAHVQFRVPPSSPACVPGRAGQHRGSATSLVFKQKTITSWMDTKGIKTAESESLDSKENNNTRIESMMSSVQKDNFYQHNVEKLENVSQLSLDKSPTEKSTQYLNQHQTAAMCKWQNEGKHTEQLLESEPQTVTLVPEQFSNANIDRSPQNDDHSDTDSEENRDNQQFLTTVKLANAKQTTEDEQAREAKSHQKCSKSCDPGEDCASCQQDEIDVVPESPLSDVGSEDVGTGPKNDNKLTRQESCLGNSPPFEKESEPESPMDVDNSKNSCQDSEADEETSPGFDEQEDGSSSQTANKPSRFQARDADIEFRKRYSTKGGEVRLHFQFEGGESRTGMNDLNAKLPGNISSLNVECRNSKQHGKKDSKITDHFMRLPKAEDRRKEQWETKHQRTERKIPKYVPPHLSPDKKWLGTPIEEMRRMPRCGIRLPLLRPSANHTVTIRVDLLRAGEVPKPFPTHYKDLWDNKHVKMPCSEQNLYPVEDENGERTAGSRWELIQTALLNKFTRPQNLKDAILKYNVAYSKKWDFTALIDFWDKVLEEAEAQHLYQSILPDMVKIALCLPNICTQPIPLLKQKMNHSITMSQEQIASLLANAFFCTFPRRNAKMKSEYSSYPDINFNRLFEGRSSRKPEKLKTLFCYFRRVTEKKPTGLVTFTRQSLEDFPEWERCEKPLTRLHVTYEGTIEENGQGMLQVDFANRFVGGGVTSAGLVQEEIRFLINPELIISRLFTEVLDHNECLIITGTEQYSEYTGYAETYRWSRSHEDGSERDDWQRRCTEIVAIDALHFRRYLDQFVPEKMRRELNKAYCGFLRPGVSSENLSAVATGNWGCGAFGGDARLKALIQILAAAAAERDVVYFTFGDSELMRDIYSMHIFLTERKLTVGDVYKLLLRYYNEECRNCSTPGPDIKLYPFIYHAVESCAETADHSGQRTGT

SMILES	IC50 (read-out: PARG Biochem IC50)	IC50 [1]
Cn1c(=O)c2cc(S(=O)(=O)NC3(C)CC3)ccc2n(Cc2ccccc2C(F)(F)F)c1=O [Example 71]	–	2.39 µM
CCn1c(=O)c2cc(S(=O)(=O)NC3(C)CC3)ccc2n(CC2CCCCC2)c1=O [Example 13]	–	3.1 µM
Cc1nc(-c2ccccc2)c(Cn2c(=O)n(C)c(=O)c3cc(S(=O)(=O)NC4(C)CC4)ccc32)s1 [Example 134]	–	0.76 µM
Cn1cncc1Cn1c(=O)c2cc(S(=O)(=O)NC3(C)CC3)ccc2n(C)c1=O [Example 154]	–	3.31 µM
Cn1c(=O)n(Cc2cccnc2)c(=O)c2cc(S(=O)(=O)NC3(C)CC3)ccc21 [Example 30]	–	2.55 µM
Cn1c(=O)c2cc(S(=O)(=O)NC3(C)CC3)ccc2n(CC2(C)COC2)c1=O [Example 42]	–	2.45 µM
Cc1cc(Cn2c(=O)c3cc(S(=O)(=O)NC4(C)CC4)ccc3n(C)c2=O)n[nH]1 [Example 195]	–	3.22 µM
Cc1cc(Cn2c(=O)c3cc(S(=O)(=O)NC4(C)CC4)ccc3n(C)c2=O)no1 [Example 103]	–	5.19 µM
Cn1c(=O)n(CC(=O)N2CCC[C@H]2C(N)=O)c(=O)c2cc(S(=O)(=O)NC3(C)CC3)ccc21 [Example 86]	–	5.47 µM
Cn1c(=O)n(Cc2ccncc2)c(=O)c2cc(S(=O)(=O)NC3(C)CC3)ccc21 [Example 53]	–	7.98 µM
Cc1cc(Cn2cc(CCCN(C)C)c3ccc(S(=O)(=O)NC4(C)CC4)cc3c2=O)on1 [Example 287, 4-[3-(dimethylamino)propyl]-N-(1-methylcyclopropyl)-2-[(3-methylisoxazol-5-yl)methyl]-1-oxo-isoquinoline-7-sulfonamide]	–	1.07 µM

Now from value to molecule:

IC50 (read-out: PARG Biochem IC50)	IC50 [1]	SMILES
3.92 µM	–	Cn1c(=O)n(CCc2ccccn2)c(=O)c2cc(S(=O)(=O)NC3(C)CC3)ccc21 [Example 498, 1-Methyl-N-(1-methylcyclopropyl)-2,4-dioxo-3-[2-(2-pyridyl)ethyl]quinazoline-6-sulfonamide]
–	1.11 µM	Cc1cc(Cn2nc(Cl)c3ccc(S(=O)(=O)NC4(C)CC4)cc3c2=O)on1 [Example 262, 1-Chloro-N-(1-methylcyclopropyl)-3-[(3-methylisoxazol-5-yl)methyl]-4-oxo-phthalazine-6-sulfonamide]
–	1.6 µM	Cn1c(=O)n(Cc2cnc(Cl)s2)c(=O)c2cc(S(=O)(=O)NC3(C)CC3)ccc21 [Example 144]
–	1.33 µM	Cn1c(=O)c2cc(S(=O)(=O)NC3(C)CC3)ccc2n(Cc2cccnc2)c1=O [Example 83]
7.22 µM	–	CC(C)c1nnsc1Cn1c(=O)c2cc(S(=O)(=O)NC3(C)CC3)ccc2n(C)c1=O [Example 509, 3-[(4-Isopropylthiadiazol-5-yl)methyl]-1-methyl-N-(1-methylcyclopropyl)-2,4-dioxo-quinazoline-6-sulfonamide]
–	0.671 µM	Cn1c(=O)c2cc(S(=O)(=O)NC3(C)CC3)ccc2n(Cc2nccs2)c1=O [Example 146]
–	0.681 µM	Cn1c(=O)n(Cc2cnn(CC3CC3)c2)c(=O)c2cc(S(=O)(=O)NC3(C)CC3)ccc21 [Example 218]
–	5.77 µM	Cn1c(=O)c2cc(S(=O)(=O)NC3(C)CC3)ccc2n(Cc2ccccn2)c1=O [Example 82]
–	3.04 µM	CCC1(NS(=O)(=O)c2ccc3c(c2)c(=O)n(Cc2cc(C)no2)c(=O)n3C)CC1 [Example 261]
3.47 µM	–	CC1(NS(=O)(=O)c2cc3c4c(cccc4c2)C(=O)NC3=O)CC1 [Example 447, N-(1-Methylcyclopropyl)-1,3-dioxo-benzo[de]isoquinoline-5-sulfonamide]
–	5.1 µM	CC1(NS(=O)(=O)c2ccc3c(c2)[nH]c(=O)c(=O)n3Cc2ccc(F)cc2)CC1 [Example 128, 1-[(4-Fluorophenyl)methyl]-N-(1-methylcyclopropyl)-2,3-dioxo-4H-quinoxaline-6-sulfonamide]
0.208 µM	–	COCCn1c(=O)n(Cc2cc(C)no2)c(=O)c2cc(S(=O)(=O)NC3(CF)CC3)ccc21 [Example 527, N-[1-(Fluoromethyl)cyclopropyl]-1-(2-methoxyethyl)-3-[(3-methylisoxazol-5-yl)methyl]-2,4-dioxo-quinazoline-6-sulfonamide]
